Data: publication PMC5244392, “Interspecies cathelicidin comparison reveals divergence in antimicrobial activity, TLR modulation, chemokine induction and regulation of phagocytosis” (Scientific Reports, 2017)

Key:
[1] = test system: LPS-induced TLR-4 activation of RAW264.7 cells; assay: LPS neutralization: LPS-induced TNFα release; type: cell-based, murine; details: peptide 0.08-20 μM; for Summary class, TLR activation LPS: 100 ng/ml LPS E. coli O111:B4, TNFα after 2 h, − = no significant effect, N = 3; for LPS neutralization / inhibition of LPS-induced activation, in words: 100 ng/ml LPS, 2 h, TNFα
Description: TLR ligands: LPS Escherichia coli (E. coli) O111:B4 (TLR-4), LTA S. aureus (TLR-2), and ODN-1826 (TLR-9) were obtained from Invivogen (Toulouse, France). Chicken CATH-2 (chCATH-2) and PMAP-36 were synthesized by Fmoc-chemistry at China Peptides (CPC scientific, Sunnycale, CA) and all other cathelicidins were synthesized by Fmoc-chemistry at the Academic Centre for Dentistry Amsterdam (Amsterdam, The Netherlands) (Table 1). Purity of all peptides was >95% as analyzed by HPLC-MS.
RAW264.7 cells were stimulated with 100 ng/ml LPS E. coli O111:B4, 1 μg/ml LTA S. aureus or 2.5 nM ODN-1826 in the presence of various concentrations of different cathelicidins. TNFα release was determined after 2 h for LPS and LTA stimulation and 24 h for ODN-1826 stimulation. CXCL10, CCL5 and IL-10 release were all determined after 24 h stimulation. As a control, RAW264.7 cells were stimulated for 2 h with 10^6 CFU/ml live or heat-killed (70 °C, 0.5 h) E. coli O78, followed by a double wash with cell culture medium and subsequent 22 h incubation in cell culture medium supplemented with 250 μg/ml gentamicin.
ELISA Duoset kits for mouse TNFα, CCL5, CXCL10 and IL-10 were obtained from R&D systems (Minneapolis, MN, USA) and ELISAs were performed according to the manufacturer’s protocol. Samples were stored at −20 °C until analysis and, if needed, diluted in 1% BSA in PBS, pH 7.4. Absorbance at 450 nm was determined in a FLUOstar Omega microplate reader (BMG Labtech GmbH) and corrected for absorbance at 570 nm. Results were analyzed with MARS data analysis software (BMG Labtech GmbH).
RAW264.7 cells were stimulated for 2 h with 100 ng/ml LPS from E. coli O111:B4 in the presence of different cathelicidins at various concentrations to study the capability of LPS neutralization (Fig. 3A). […] Next, RAW264.7 cells were stimulated with 1 μg/ml S. aureus LTA for 2 h in the presence of various cathelicidin concentrations, to test LTA neutralization (Fig. 3B).
Figure 3 Effects of cathelicidins on TLR-2, -4, and -9 activation. LPS (100 ng/ml) (A), LTA (1 μg/ml) (B) or ODN-1826 (2.5 nM) (C) was mixed with different cathelicidins (0.08 μM, 0.31 μM, 1.25 μM, 5 μM, and 20 μM) before addition to the RAW264.7 cells. Supernatants were collected after 2 hours (A,B) or 24 hours (C) incubation and TNFα expression was measured. The dotted line represents the average cytokine release of control samples. Results are presented as average +/− SEM (N = 3). Statistical differences were determined by Two-way ANOVA with Bonferroni post-hoc test.

[2] = test system: methicillin resistant Staphylococcus aureus (MRSA) (WKZ-2, human clinical isolate); assay: Bacterial growth delay (Bioscreen C), MRSA; type: cell-based; details: for Cmax, MRSA, DMEM / Summary class, antimicrobial activity S. aureus DMEM / Max: hours growth delay with 20 μM cathelicidin, MRSA, DMEM: DMEM + FCS; for Cmax, MRSA, DMEM / Cmax, MRSA, MHB: 1 × 10^6 CFU/ml, peptide 0.31-20 μM, 16 h, 37 °C, — = no Cmax reached up to 20 μM; for Cmax, MRSA, DMEM / Cmax, MRSA, MHB / Max: hours growth delay with 20 μM cathelicidin, MRSA, DMEM / Max: hours growth delay with 20 μM cathelicidin, MRSA, MHB: N = 4; for Summary class, antimicrobial activity S. aureus DMEM / Summary class, antimicrobial activity S. aureus MHB: MRSA, − is not defined in the key; for Max: hours growth delay with 20 μM cathelicidin, MRSA, DMEM / Max: hours growth delay with 20 μM cathelicidin, MRSA, MHB: 20 μM peptide, given if no Cmax was reached
Method: E. coli O78 (Zoetis Animal Health, Kalamazoo, MI, USA), E. coli ATCC 25922, Staphylococcus aureus ATCC 29213, and methicillin resistant Staphylococcus aureus (MRSA) (WKZ-2, human clinical isolate) were grown overnight from a glycerol stock in Mueller Hinton Broth (MHB) (Becton Dickinson, USA). Before use, bacteria were grown to mid-log phase in MHB for 2 hours at 37 °C, 200 RPM. Murine RAW264.7 macrophages (ATCC-TIB-71) were obtained from the American Type Culture Collection (ATCC, Manassas, VA, USA) and cultured in DMEM (41966-029; Thermo Fisher Scientific, Waltham, MA, USA) supplemented with 10% FCS (Bodinco B.V., Alkmaar, the Netherlands) (DMEM + FCS) at 37 °C, 5.0% CO2. Cells were seeded in 96-wells plates at 5 × 10^5 cells/ml or 12-wells plates at 2 × 10^5/ml for adherence overnight prior to stimulation.
Peptides (0.63 to 40 μM) and bacteria mid-log cultures (2 * 10^6 CFU/ml) were prepared in MHB or DMEM + FCS and mixed (100 μl peptide + 100 μl bacterial culture) in a Bioscreen C analyzer plate (Oy Growth Curves Ab Ltd, Helsingfors, Finland). Plates were placed in a Bioscreen C analyzer (Oy Growth Curves Ab Ltd) and bacteria were grown for 16 h at 37 °C with 200 RPM. The OD was measured every 15 minutes using a wideband filter (450–580 nm) to measure bacterial growth. The time needed grow above an OD of 0.6 was determined for all concentrations. Activity of peptides was expressed as the Cmax, the concentration of peptide required to delay the growth for 10 h compared to the control. Or, for peptides with low activity (no Cmax), activity was expressed as the hours of growth delay at 20 μM. Unlike the classic MIC and MBC determination used in microbiology, this method also enabled comparison of peptides with low antibacterial activity.
Twelve cathelicidins from 6 different species were selected for this study, namely: human LL-37, murine CRAMP, dog K9CATH, equine CATH (eCATH)-1, -2 and -3, chicken CATH (chCATH)-1, -2, and -3, porcine PMAP-23 and -36 and PR-39 (Table 1). Antimicrobial activity against E. coli and MRSA was directly compared under standardized conditions in MHB, a medium optimized for bacterial growth. Bacterial growth delay was defined as the delay in hours for peptide-treated bacteria to reach an OD of 0.6, compared to the non-treated control. Cmax is the minimal concentration needed to delay growth for a minimum of 10 hours compared to the non-treated control (Table 1 and Fig. 1A).
Figure 1 Antibacterial activity of cathelicidins. E. coli and MRSA (1 × 10^6 CFU/ml) of were grown in MHB or DMEM ± FCS for 16 hours under constant shaking (200 RPM). Every 15 minutes the OD was measured. Growth delay was defined as the time needed for peptide-treated bacteria to grow above an OD of 0.6 compared to the control bacteria (no peptide added) (A). Cathelicidins were tested in different concentrations (0.31 μM, 0.63 μM, 1.25 μM, 2.5 μM, 5 μM, 10 μM, and 20 μM) to determine the antimicrobial activity in MHB against E. coli (B) or MRSA (C) and in more physiological medium DMEM + FCS (D,E). Results are presented as average +/− SEM (N = 4).

Substance | Summary class, TLR activation LPS [1] | Cmax, MRSA, DMEM [2] | Summary class, antimicrobial activity S. aureus DMEM [2] | Cmax, MRSA, MHB ([2]; MHB) | Summary class, antimicrobial activity S. aureus MHB ([2]; MHB) | Max: hours growth delay with 20 μM cathelicidin, MRSA, DMEM [2] | Max: hours growth delay with 20 μM cathelicidin, MRSA, MHB ([2]; MHB) | LPS neutralization / inhibition of LPS-induced activation, in words [1] | Activity against MRSA in MHB, in words ([2]; MHB, peptide up to 20 μM)
Ac-GRFRRLRKKTRKRLKKIGKVLKWIPPIVGSIPLGCG [PMAP-36, porcine α-helical cathelicidin, N-acetylated, 36 residues, charge +13] | ↓↓ (↓↓ = significant decrease ≤5 μM) | 0.31 µM | +++ (+++ = Cmax at ≤20 μM) | 10 µM | +++ (+++ = Cmax at ≤20 μM) |  |  |  | 
GLLRKGGEKIGEKLKKIGQKIKNFFQKLVPQPEQ [CRAMP, murine cathelicidin, 34 residues, charge +6] | ↓↓ (↓↓ = significant decrease ≤5 μM) |  | + (+ = >4 hours inhibition at 20 μM) |  |  | 6.5 h | 0.5 h |  | 
KRRHWFPLSFQEFLEQLRRFRDQLPFP [eCATH-2, equine CATH-2, 27 residues, charge +4] |  |  |  |  |  | 3.5 h | 1.5 h |  | 
RFGRFLRKIRRFRPKVTITIQGSARF-NH2 [chCATH-2, chicken CATH-2, C-terminal amide, 26 residues, charge +9] | ↓↓ (↓↓ = significant decrease ≤5 μM) | 0.31 µM | +++ (+++ = Cmax at ≤20 μM) | 2.5 µM | +++ (+++ = Cmax at ≤20 μM) |  |  | potently inhibited | 
RIIDLLWRVRRPQKPKFVTVWVR [PMAP-23, porcine α-helical cathelicidin, 23 residues, charge +6] |  | 10 µM | +++ (+++ = Cmax at ≤20 μM) | 20 µM | +++ (+++ = Cmax at ≤20 μM) |  |  | None of the equine cathelicidins nor PMAP-23 and PR-39 were capable to neutralize LPS | 
RLKELITTGGQKIGEKIRRIGQRIKDFFKNLQPREEKS [Peptide K9CATH, dog cathelicidin, 38 residues, charge +6] | ↓↓ (↓↓ = significant decrease ≤5 μM) |  | + (+ = >4 hours inhibition at 20 μM) |  |  | 4.5 h | 0.5 h | significantly inhibited | 
RRRPRPPYLPRPRPPPFFPPRLPPRIPPGFPPRFPPRFP [PR-39, porcine proline-rich cathelicidin forming a polyproline helix, 39 residues, charge +10] |  | 10 µM | +++ (+++ = Cmax at ≤20 μM) |  |  |  | 0.5 h | None of the equine cathelicidins nor PMAP-23 and PR-39 were capable to neutralize LPS | no effect
RVKRFWPLVPVAINTVAAGINLYKAIRRK [chCATH-3, chicken CATH-3, 29 residues, charge +7] | ↓↓ (↓↓ = significant decrease ≤5 μM) | 0.31 µM | +++ (+++ = Cmax at ≤20 μM) | 5 µM | +++ (+++ = Cmax at ≤20 μM) |  |  | significantly inhibited | 
